Assay results taken from patent US8828989B2, “Oxy-cyclohexyl-4H,6H-5-oxa-2,3,10b-triaza-benzo[E]azulenes as V1A antagonists” (Hoffmann-La Roche Inc., priority 2011, dated 2014).

The compounds below were run against T1, human V1a receptor (Homo sapiens, UniProt P37288) (assay: human V1a receptor binding studies (3H-Vasopressin SPA, membranes of transfected HEK293 cells)). Conditions: 3H-Vasopressin displacement, HEK293 cell membranes, Ki by Cheng-Prussoff equation; read-out: pKi hV1a (converted).
T1 construct: expressed in transfected cells; host or cells: HEK293 cells, transiently transfected (membrane preparation)
Procedure: The human V1a receptor was cloned by RT-PCR from total human liver RNA. The coding sequence was subcloned in an expression vector after sequencing to confirm the identity of the amplified sequence. […] Cell membranes were prepared from HEK293 cells transiently transfected with the expression vector and grown in 20 liter fermenters with the following protocol.
50 g of cells are resuspended in 30 ml freshly prepared ice cold Lysis buffer (50 mM HEPES, 1 mM EDTA, 10 mM MgCl2 adjusted to pH=7.4+complete cocktail of protease inhibitor (Roche Diagnostics)). Homogenized with Polytron for 1 min and sonicated on ice for 2×2 minutes at 80% intensity (Vibracell sonicator). The preparation is centrifuged 20 min at 500 g at 4° C., the pellet is discarded and the supernatant centrifuged 1 hour at 43,000 g at 4° C. (19,000 rpm). The pellet is resuspended in 12.5 ml Lysis buffer+12.5 ml Sucrose 20% and homogenized using a Polytron for 1-2 min. The protein concentration is determined by the Bradford method and aliquots are stored at −80° C. until use. For binding studies 60 mg Yttrium silicate SPA beads (Amersham) are mixed with an aliquot of membrane in binding buffer (50 mM Tris, 120 mM NaCl, 5 mM KCl, 2 mM CaCl2, 10 mM MgCl2) for 15 minutes with mixing. 50 μl of bead/membrane mixture is then added to each well of a 96 well plate, followed by 50 μl of 4 nM 3H-Vasopressin (American Radiolabeled Chemicals). For total binding measurement 100 μl of binding buffer are added to the respective wells, for non-specific binding 100 μl of […] cold vasopressin and for compound testing 100 μl of a serial dilution of each compound in 2% DMSO. The plate is incubated 1 h at room temperature, centrifuged 1 min at 1000 g and counted on a Packard Top-Count. Non-specific binding counts are subtracted from each well and data is normalized to the maximum specific binding set at 100%. To calculate an IC 50 the curve is fitted using a non-linear regression model (XLfit) and the Ki is calculated using the Cheng-Prussoff equation.

T1 sequence (P37288 whole entry): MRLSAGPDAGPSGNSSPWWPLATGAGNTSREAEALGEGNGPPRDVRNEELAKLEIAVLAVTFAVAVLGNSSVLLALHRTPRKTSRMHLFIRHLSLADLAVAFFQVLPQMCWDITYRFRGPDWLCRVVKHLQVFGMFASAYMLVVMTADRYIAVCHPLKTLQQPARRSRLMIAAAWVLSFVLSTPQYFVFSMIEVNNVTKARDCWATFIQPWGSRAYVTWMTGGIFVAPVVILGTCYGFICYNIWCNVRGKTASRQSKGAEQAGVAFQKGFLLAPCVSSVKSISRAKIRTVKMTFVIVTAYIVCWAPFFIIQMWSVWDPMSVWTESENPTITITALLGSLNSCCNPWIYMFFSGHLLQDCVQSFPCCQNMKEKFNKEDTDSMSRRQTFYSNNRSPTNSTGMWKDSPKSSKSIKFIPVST

Ki | Compound
26.9 nM | Clc1ccc2c(c1)COCc1nnc([C@H]3CC[C@H](Oc4cnccn4)CC3)n1-2 [Example 6, trans-8-Chloro-1-[4-(pyrazin-2-yloxy)-cyclohexyl]-4H,6H-5-oxa-2,3,10b-triaza-benzo[e]azulene]
2.34 nM | Clc1ccc2c(c1)COCc1nnc([C@H]3CC[C@H](Oc4ccccn4)CC3)n1-2 [Example 5, trans-8-Chloro-1-[4-(pyridin-2-yloxy)-cyclohexyl]-4H,6H-5-oxa-2,3,10b-triaza-benzo[e]azulene]

Continued, compound first:

Compound | Ki
CCC(C)O[C@H]1CC[C@H](c2nnc3n2-c2ccc(Cl)cc2COC3)CC1 (stereo partly drawn) [Example 2, trans-1-(4-sec-Butoxy-cyclohexyl)-8-chloro-4H,6H-5-oxa-2,3,10b-triaza-benzo[e]azulene] | 4.37 nM
Clc1ccc2c(c1)COCc1nnc([C@H]3CC[C@H](OC4CCCC4)CC3)n1-2 [Example 3, trans-8-Chloro-1-(4-cyclopentyloxy-cyclohexyl)-4H,6H-5-oxa-2,3,10b-triaza-benzo[e]azulene] | 0.407 nM
CC(C)O[C@H]1CC[C@H](c2nnc3n2-c2ccc(Cl)cc2COC3)CC1 [Example 1, trans-8-Chloro-1-(4-isopropoxy-cyclohexyl)-4H,6H-5-oxa-2,3,10b-triaza-benzo[e]azulene] | 19.1 nM
Clc1ccc2c(c1)COCc1nnc([C@H]3CC[C@H](Oc4ccccc4)CC3)n1-2 [Example 4, trans-8-Chloro-1-(4-phenoxy-cyclohexyl)-4H,6H-5-oxa-2,3,10b-triaza-benzo[e]azulene] | 1.32 nM
